Test [1] concerns Danio rerio. Put plainly: Cardioprotective activity against doxorubicin-induced Zebrafish cardiomyopathy model assessed as survival rate at 40 uM fertilized for 24 hrs followed by compound administration for 72 hrs and measured at 96 hrs post fertilization by inverted fluorescence microscopic analysis. Type of test: functional.
Test [2] is filed under the species Danio rerio. Briefly: Cardioprotective activity against doxorubicin-induced Tg(cmlc2: GFP) Zebrafish assessed as restoration of normal heart structure at 60 uM measured at 72 hrs post fertilization. In kind it is functional, organism-based.
Test [3] deals with Danio rerio. Put plainly: Cardioprotective activity against doxorubicin-induced Zebrafish cardiomyopathy model assessed as survival rate at 60 uM fertilized for 24 hrs followed by compound administration for 72 hrs and measured at 96 hrs post fertilization by inverted fluorescence microscopic analysis. Type of test: functional.
Test [4] has as its system Danio rerio. Put plainly: Cardioprotective activity against doxorubicin-induced Tg(cmlc2: GFP) Zebrafish assessed as […] at 60 uM measured at 72 hrs post fertilization. In kind it is functional, organism-based.
Test [5] deals with H9c2. Put plainly: Upregulation of SIRT3 expression in rat H9c2 cells upto 10 uM by Western blot analysis. Type of test: functional, cell-based. (In western blotting, separated proteins are transferred to a membrane and probed.)
For test [6], the species on record is Mus musculus. Put plainly: Antioxidant activity against doxorubicin-induced C57BL/6 mouse assessed as decrease in MDA level in heart. Type of test: functional, organism-based.
For test [7], the system named is H9c2. Briefly: Upregulation of OPA1 expression in rat H9c2 cells upto 10 uM by Western blot analysis. Type of test: functional, cell-based.
The test system of test [8] is Mus musculus. Put plainly: Cardioprotective activity against doxorubicin-induced C57BL/6 mouse cardiomyopathy model assessed as reduction in Bnp mRNA level at 2.5 mg/kg, ip administered for 7 days. Type of test: functional, organism-based. The following applies: time 7.0 day.
For test [9], the system named is Mus musculus. Put plainly: Cardioprotective activity against doxorubicin-induced C57BL/6 mouse cardiomyopathy model assessed as collagen fraction volume at 2.5 mg/kg, ip administered for 7 days by Sirius staining based analysis. Type of test: functional, organism-based. As to conditions: time 7.0 day.
Test [10] is filed under the species Danio rerio. Put plainly: Cardioprotective activity against doxorubicin-induced Tg(cmlc2: GFP) Zebrafish at 15 uM measured at 72 hrs post fertilization. In kind it is functional, organism-based.
For test [11], the system named is H9c2. Put plainly: Antioxidant activity against doxorubicin-induced rat H9c2 cells assessed as decrease in MDA level upto 10 uM. In kind it is functional, cell-based.
Test [12] deals with Mus musculus. Briefly: Cardioprotective activity against doxorubicin-induced C57BL/6 mouse cardiomyopathy model assessed as upregulation of […] level at 2.5 mg/kg, ip administered for 7 days by Western blot analysis. In kind it is functional, organism-based. As to conditions: time 7.0 day.
For test [13], the system named is H9c2. Briefly: Cardioprotective activity against doxorubicin-induced rat H9c2 cells assessed as increase in cell viability at 10 uM incubated for 24 hrs in presence of 3-TYP by CCK-8 assay. Type of test: functional, cell-based. In general terms: Tetrazolium dyes change colour on reduction, which living cells bring about.
For test [14], the species on record is Mus musculus. Put plainly: Antioxidant activity against doxorubicin-induced C57BL/6 mouse assessed as increase in GSH level in heart. Type of test: functional, organism-based.
In test [15] the test system is H9c2. Put plainly: Antioxidant activity against doxorubicin-induced rat H9c2 cells assessed as increase in SOD level upto 10 uM in presence of 3-TYP. In kind it is functional, cell-based.
In test [16] the test system is H9c2. Put plainly: Cardioprotective activity against doxorubicin-induced rat H9c2 cells assessed as downregulation of Anp mRNA level upto 10 uM qPCR analysis. In kind it is functional, cell-based.
Test [17] deals with H9c2. Briefly: Upregulation of OPA1 expression in doxorubicin-induced rat H9c2 cells transfected with SIRT3 siRNA at 10 uM by Western blot analysis. In kind it is functional, cell-based.
In test [18] the test system is Mus musculus. Briefly: Cardioprotective activity against doxorubicin-induced C57BL/6 mouse cardiomyopathy model assessed as upregulation of SIRT3 level at 2.5 mg/kg, ip administered for 7 days by Western blot analysis. In kind it is functional, organism-based. The following applies: time 7.0 day.
Test [19] relates to H9c2. Put plainly: Induction of ROS accumulation in doxorubicin-induced rat H9c2 cells assessed as reduction in fluorescence intensity incubated for 30 min by DCFH-DA and PI staining based microscopic analysis. In kind it is functional, cell-based. As to conditions: dose 1-10 µM.
Test [20] concerns H9c2. Put plainly: Induction of mitochondrial membrane potential loss in doxorubicin-induced rat H9c2 cells incubated for 30 mins in prsence of 3-TYP by JC-1 staining based fluorescence microscopic analysis. Type of test: cell-based.
Test [21] has as its system H9c2. Put plainly: Induction of ROS accumulation in doxorubicin-induced rat H9c2 cells assessed as reduction in fluorescence intensity upto 10 uM incubated for 30 min in presence of 3-TYP by DCFH-DA and PI staining based microscopic analysis. Type of test: functional, cell-based.
Test [22] relates to Mus musculus. Put plainly: Cardioprotective activity against doxorubicin-induced C57BL/6 mouse cardiomyopathy model assessed as reduction in Anp mRNA level at 2.5 mg/kg, ip administered for 7 days. The following applies: time 7.0 day. In kind it is functional, organism-based.
Test [23] is filed under the species Danio rerio. Briefly: Cardioprotective activity against doxorubicin-induced Tg(cmlc2: GFP) Zebrafish assessed as restoration of normal heart structure at 5 uM measured at 72 hrs post fertilization. In kind it is functional, organism-based.
The species entered for test [24] is Danio rerio. Briefly: Cardioprotective activity against doxorubicin-induced Tg(cmlc2: GFP) Zebrafish at 5 uM measured at 72 hrs post fertilization. In kind it is functional, organism-based.
Test [25] deals with H9c2. Put plainly: Antioxidant activity against doxorubicin-induced rat H9c2 cells assessed as increase in SOD level upto 10 uM. Type of test: functional, cell-based.
The subject of test [26] is H9c2. Briefly: Upregulation of SOD2 expression in rat H9c2 cells upto 10 uM by Western blot analysis. In kind it is functional, cell-based.
Test [27] deals with H9c2. Put plainly: Induction of mitochondrial membrane potential loss in doxorubicin-induced rat H9c2 cells transfected with SIRT3 siRNA incubated for 30 mins in prsence of 3-TYP by JC-1 staining based fluorescence microscopic analysis. In kind it is cell-based.
Test [28] concerns H9c2. Put plainly: Cardioprotective activity against doxorubicin-induced rat H9c2 cells assessed as reduction in LDH release upto 10 uM in presence of 3-TYP. Type of test: functional, cell-based. (In general: LDH leaks from cells whose membrane has failed.)
The subject of test [29] is H9c2. Put plainly: Antioxidant activity against doxorubicin-induced rat H9c2 cells assessed as increase in GSH level upto 10 uM in presence of 3-TYP. In kind it is functional, cell-based.
For test [30], the system named is H9c2. Briefly: Cardioprotective activity against doxorubicin-induced rat H9c2 cells assessed as increase in cell viability at 10 uM incubated for 24 hrs by CCK-8 assay. Type of test: functional, cell-based.
For test [31], the system named is Mus musculus. Briefly: Cardioprotective activity against doxorubicin-induced C57BL/6 mouse cardiomyopathy model assessed as collagen fraction volume at 2.5 mg/kg, ip administered for 7 days by masson staining based analysis. As to conditions: time 7.0 day. In kind it is functional, organism-based.
Test [32] deals with H9c2. Put plainly: Cardioprotective activity against doxorubicin-induced rat H9c2 cells assessed as reduction in LDH release upto 10 uM. Type of test: functional, cell-based.
Test [33] deals with Mus musculus. Briefly: Cardioprotective activity against doxorubicin-induced C57BL/6 mouse cardiomyopathy model assessed as reduction in cTnT mRNA level at 2.5 mg/kg, ip administered for 7 days. In kind it is functional, organism-based. The following applies: time 7.0 day.
Test [34] deals with H9c2. Put plainly: Cardioprotective activity against doxorubicin-induced rat H9c2 cells assessed as downregulation of cTnT mRNA level upto 10 uM qPCR analysis. In kind it is functional, cell-based.
For test [35], the system named is Mus musculus. Briefly: Cardioprotective activity against doxorubicin-induced C57BL/6 mouse cardiomyopathy model assessed as upregulation of SOD2 level at 2.5 mg/kg, ip administered for 7 days by Western blot analysis. Type of test: functional, organism-based. As to conditions: time 7.0 day.
Test [36] concerns H9c2. Briefly: Cardioprotective activity against doxorubicin-induced rat H9c2 cells assessed as downregulation of Bnp mRNA level upto 10 uM qPCR analysis. In kind it is functional, cell-based.
Test [37] deals with H9c2. Briefly: Upregulation of SOD2 expression in doxorubicin-induced rat H9c2 cells transfected with SIRT3 siRNA at 10 uM by Western blot analysis. In kind it is functional, cell-based.
The test system of test [38] is H9c2. Put plainly: Induction of mitochondrial membrane potential loss in doxorubicin-induced rat H9c2 cells incubated for 30 mins by JC-1 staining based fluorescence microscopic analysis. Type of test: cell-based. The following applies: dose 1-10 µM.
Test [39] is filed under the species Danio rerio. Put plainly: Cardioprotective activity against doxorubicin-induced Tg(cmlc2: GFP) Zebrafish assessed as reduction in cTnT mRNA level measured at 72 hrs post fertilization by qPCR analysis. In kind it is functional, organism-based. The following applies: dose <= 5.0 µM.
Test [40] is filed under the species Danio rerio. Briefly: Cardioprotective activity against doxorubicin-induced Tg(cmlc2: GFP) Zebrafish assessed as reduction in Anp mRNA level measured at 72 hrs post fertilization by qPCR analysis. In kind it is functional, organism-based. As to conditions: dose <= 5.0 µM.
Test [41] has as its system H9c2. Briefly: Induction of ROS accumulation in doxorubicin-induced rat H9c2 cells transfected with SIRT3 siRNA assessed as reduction in fluorescence intensity at 10 uM incubated for 30 min in presence of 3-TYP by DCFH-DA and PI staining based microscopic analysis. In kind it is functional, cell-based.
Test [42] relates to H9c2. Put plainly: Antioxidant activity against doxorubicin-induced rat H9c2 cells assessed as decrease in MDA level upto 10 uM in presence of 3-TYP. In kind it is functional, cell-based.
Test [43] concerns H9c2. Briefly: Cardioprotective activity against doxorubicin-induced rat H9c2 cells assessed as increase in cell viability at 10 uM incubated for 24 hrs in presence of EX527 by CCK-8 assay. Type of test: functional, cell-based.
For test [44], the system named is H9c2. Put plainly: Antioxidant activity against doxorubicin-induced rat H9c2 cells assessed as increase in GSH level upto 10 uM. Type of test: functional, cell-based.
The test system of test [45] is Danio rerio. Briefly: Cardioprotective activity against doxorubicin-induced Tg(cmlc2: GFP) Zebrafish assessed as […] at 5 uM measured at 72 hrs post fertilization. Type of test: functional, organism-based.
Test [46] deals with H9c2. Put plainly: Cardioprotective activity against doxorubicin-induced rat H9c2 cells assessed as increase in cell viability incubated for 24 hrs by CCK-8 assay. Type of test: functional, cell-based. The following applies: dose 1-10 µM.
The species entered for test [47] is Danio rerio. Put plainly: Cardioprotective activity against doxorubicin-induced Tg(cmlc2: GFP) Zebrafish assessed as reduction in Bnp mRNA level measured at 72 hrs post fertilization by qPCR analysis. Type of test: functional, organism-based.

This is an account of results in ChEMBL document CHEMBL5543130, “Design, Synthesis, and In Vivo Evaluation of Isosteviol Derivatives as New SIRT3 Activators with Highly Potent Cardioprotective Effects” (J Med Chem, 2024).

Activity calls are given as the source filed them. No cut-off for these calls is given here.

For `C[C@@H]1CC(=O)NN=C1c1ccc(NN=C(C#N)C#N)cc1` [LEVOSIMENDAN], the survival at 40 µM in the test with Danio rerio [1] worked out at 75%. Also, the outcome in the test filed under Danio rerio [2] and with Danio rerio [4] was Active. For the same compound, the survival at 60 µM in the test on Danio rerio [3] came out at 84%.

Consider `C[C@@]12CC[C@@H]3[C@@](CC[C@H]4[C@@]3(C)CCC[C@@]4(C)C(=O)N3CCN(C(=O)c4ccccc4C(=O)O)CC3)(CC1=O)C2`, for which the result with H9c2 [5], in the test listed under Mus musculus [6], in the test on H9c2 [7], in the test with Mus musculus [8], in the test with Mus musculus [9] and in the test listed under Danio rerio [10] was Active. Also, the outcome in the test with H9c2 [11], in the test on Mus musculus [12], in the test listed under Mus musculus [14], with H9c2 [15], in the test with H9c2 [16] and in the test on H9c2 [17] was Active. Besides, the outcome in the test on Mus musculus [18], in the test on H9c2 [20], with H9c2 [21], with Mus musculus [22], in the test listed under Danio rerio [23] and in the test listed under Danio rerio [24] was Active. The result in the test with H9c2 [25], in the test with H9c2 [26], with H9c2 [27], in the test on H9c2 [28], in the test with H9c2 [29] and in the test with H9c2 [30] was Active. For the same compound, the result with Mus musculus [31], in the test with H9c2 [32], in the test with Mus musculus [33], in the test on H9c2 [34], with Mus musculus [35] and in the test on H9c2 [36] was Active. The outcome in the test on H9c2 [37], with H9c2 [41], in the test with H9c2 [42], in the test on H9c2 [44] and in the test on Danio rerio [45] was Active. The result with H9c2 [13] and in the test with H9c2 [43] was inactive. For the same compound, the Activity entry with H9c2 [19], with H9c2 [38], in the test listed under Danio rerio [39], in the test listed under Danio rerio [40], in the test on H9c2 [46] and in the test listed under Danio rerio [47] was “Dose-Dependent Effect” each time.
